Values quoted from earlier work, collected in article PMC8414988 (Pediatric blood & cancer, 2021).

Assays:
[1] = daily, 21 days followed by 7-day rest, adults; cited from earlier work
[2] = cited from earlier work

For `CC(=O)c1c(C)c2cnc(Nc3ccc(N4CCNCC4)cn3)nc2n(C2CCCC2)c1=O` [palbociclib], the “adult MTD” value [1] is given as 125 mg and the solubility [2] is given as “pH-dependent solubility”.
